Laboratory results: ChEMBL document CHEMBL1146934, “Polyhydroxylated 4-thiaflavans as multipotent antioxidants: protective effect on oxidative DNA damage in vitro” (Bioorg Med Chem Lett, 2006)
Active and inactive are the calls of the source. No cut-off for these calls is given here.

Columns and labels:
[1] = system: Radical scavenging activity; experiment: Effect on CumOOH-induced oxidative damage of herring sperm DNA assessed as reduction in 8-OHdG level; type: functional; parameters: scale not given: the % may be the effect or the level left; details: Clupea
[2] = system: Radical scavenging activity; experiment: Effect on glutathione/ferric ion-induced oxidative damage of herring sperm DNA assessed as reduction in 8-OHdG level; type: functional; parameters: scale not given: the % may be the effect or the level left; details: Clupea

Compound | Activity [1] | Activity [2]
COc1ccc(C2CSc3c(O)cc(O)cc3O2)cc1 (configuration not stated) | inactive | Active
VITAMIN E | 61% | 33%
Oc1cc(O)c2c(c1)OC(c1ccc(O)c(O)c1)C(O)C2 (racemic) | 32% | 36%
COc1cc(OC)c2c(c1)OC(c1ccc(O)c(O)c1)CS2 (configuration not stated) | 30% | 
Oc1cc(O)c2c(c1)OC(c1ccc(O)c(O)c1)CS2 (configuration not stated) | 30% | 82%
COc1ccc(C2CSc3cc(O)ccc3O2)cc1 (configuration not stated) | inactive | 
COc1ccc(C2CSc3ccc(O)cc3O2)cc1 (configuration not stated) | inactive | Active
